Results on two molecules are retold here after US20230374591A1, “METHODS AND AGENTS FOR TREATING, PREVENTING, DIAGNOSING, AND EVALUATING THERAPY FOR FIBROTIC, AUTOIMMUNE, AND INFLAMMATORY CONDITIONS” (THE TRUSTEES OF DARTMOUTH COLLEGE, priority 2020, published 2023).

One test has as its system ACVR1C. Kind of test: SCOT trial longitudinal PBC gene expression: ACVR1C. The test is classed as in vivo, human. To be noted: PBCs of SSc patients, baseline to 48/54 months, imputed data. From the text: (§1) The SCOT trial compared the therapeutic outcomes of myeloablative CD34+selected autologous HSCT and CYC in severe diffuse SSc patients (for study design details of SCOT trial, see Sullivan K. M. et al., N Engl J Med. 2018 Jan. 4; 378(1): 35-47. doi: 10.1056/nejmoa1703327. [PMID: 29298160]). The trial provided gene expression in the peripheral blood cells (PBCs) from 30 SSc patients who completed HSCT treatment, 33 patients who completed CYC treatment, and 28 healthy controls (Franks J. M. et al., Ann Rheum Dis. 2020 Sep. 15; annrheumdis-2020-217033. doi: 10.1136/annrheumdis-2020-217033. Online ahead of print. [PMID: 32933919]). In the current study, Applicant analyzed the longitudinal expression profile of SCOT patients from baseline to 54 months. 20 month and 26 month data were merged (referred to as 20/26 months), and 48 month and 54 month data were merged (referred to as 48/54 months).
(§2) To reduce the statistical bias of downstream comparisons, Applicant applied seasonal adjustment and linear interpolation to impute those missing time points. The “imputeTS” R package was used. Patients with only baseline gene expression data and no longitudinal samples were not imputed (n=20; 32% of participants; 10 for cyclophosphamide and 10 for transplant).

A further test concerns Interleukin 6 (IL6). In words: SCOT trial longitudinal PBC gene expression: IL6. The test is classed as in vivo, human. To be noted: PBCs of SSc patients.
Text: as §1, §2

The nature of test [1]: SCOT trial outcomes / event free survival analysis. It is filed as in vivo, human. To be noted: CYC arm, median split, P=0.04.
Text: as §1
Survival analysis was performed using the “survival” R package based on gene level data. Only the baseline gene expression data were considered for these analyses. Patients were divided into two groups using the median expression value of a given gene as cutoff Briefly, high expression group is patients' gene expression greater than or equal to the median value and low expression group is patients' gene expression lower than the median value. […]

The next test deals with TGF beta. Particulars: cited from earlier work.

With `O=P1(N(CCCl)CCCl)NCCCO1` (stereo not drawn) [CYC, cyclophosphamide], the “ACVR1C expression over time” value in the test on ACVR1C is “flat trend”. Further, the “IL6 expression over time” value in the test on Interleukin 6 (IL6) is reported as “increased”. Besides, the “hazard ratio (HR) for EFS, higher vs lower baseline CLCF1 expression” value in test [1] worked out at 3.15.

In the case of “fresolimumab: anti-TGF beta monoclonal antibody therapy”, in the test on TGF beta (SSc patients), the SSc biomarkers entry was “decreased” and the clinical symptoms entry is on record as “improved”. The trial result in the test with TGF beta (SSc) is “promising results”.
